According to patent US20250197407A1 (Jazz Pharmaceuticals Ireland Limited, priority 2022, published 2025):

Biological target: SOS1/KRAS WT (Homo sapiens (Human), UniProt Q07889)
Experiment: SOS1/KRAS WT HTRF binding assay (FRET-based protein-protein interaction)
Conditions: inhibition of His6-SOS1 (aa564-1049, 40 nM) binding to GST-KRAS-WT (aa1-188, 40 nM); at least two independent replicates; read-out: SOS1/KRAS WT HTRF Binding assay pIC50 (converted)
Excerpt: The capacity of compounds to inhibit SOS1 binding to KRAS-WT (wild-type) was quantified using a FRET-based protein-protein interaction assay. The assay is based on the transfer of energy between two fluorophores, a donor and an acceptor, when in close proximity. In this instance, the donor is a Europium-conjugated α-GST antibody that binds to GST-tagged KRAS-WT, and the acceptor is an XL665-conjugated α-His 6 antibody that binds to His 6-tagged SOS1. Binding of SOS1 to KRAS-WT results in an increased fluorescent signal at emission wavelength of 665 nm which can be detected on the EnVision plate reader. Compounds that inhibit binding will reduce the 665 nm signal emitted. Recombinant KRAS-WT protein (40 nM; Human KRAS, aa1-188 recombinant protein with N-terminal GST-tag) and SOS1 protein (40 nM; Human SOS1 exchange domain, aa564-1049 with N-terminal 6His-tag) were mixed together in assay buffer (5 mM HEPES pH7.3, 150 mM NaCl, 10 mM EDTA, 5 mM MgCl2, 0.05% BSA, 0.0025% NP-40, 1 mM DTT and 100 mM KF) and incubated at room temperature with a dose response of compound in a 384-well low volume white plate and a final volume of 5 ul. After a 60 minute incubation, 5 ul of 4 nM anti-GST-Eu(K) (Cisbio, France) combined with 20 nM anti-6His-XL665 (Cisbio, France), diluted in assay buffer, was added to the plate. Following a further 4 hr incubation at room temperature, time-resolved fluorescence was measured on the EnVision plate reader. DMSO (0.05%) and 10 μM reference compound were used to generate the Max and Min assay signals, respectively. Data was analysed using a four-parameter logistic model to calculate IC50 values, with at least two independent replicates performed for each compound.
Data was analyzed using a four-parameter logistic model to calculate IC50 values, with at least two independent replicates performed for each compound.

SOS1/KRAS WT, sequence (Q07889 564-1049): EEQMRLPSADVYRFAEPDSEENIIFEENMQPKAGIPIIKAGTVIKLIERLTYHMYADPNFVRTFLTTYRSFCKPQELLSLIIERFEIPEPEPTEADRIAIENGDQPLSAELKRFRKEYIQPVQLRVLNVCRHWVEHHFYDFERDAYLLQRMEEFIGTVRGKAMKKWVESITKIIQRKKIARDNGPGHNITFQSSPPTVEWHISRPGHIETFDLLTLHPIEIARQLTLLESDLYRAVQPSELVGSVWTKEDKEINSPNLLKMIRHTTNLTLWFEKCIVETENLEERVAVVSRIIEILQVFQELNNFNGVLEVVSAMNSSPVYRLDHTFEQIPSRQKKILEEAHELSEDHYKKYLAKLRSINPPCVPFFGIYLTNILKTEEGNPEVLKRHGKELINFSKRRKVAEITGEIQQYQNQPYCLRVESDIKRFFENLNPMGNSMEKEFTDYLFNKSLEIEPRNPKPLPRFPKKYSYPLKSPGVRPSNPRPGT

| IC50 | SMILES |
| --- | --- |
| 10.7 nM | CCC1(OC)C(=O)N(C)c2cc3c(N[C@H](C)c4cccc(C(F)(F)C(C)(C)O)c4)nnc(C)c3cc21 (stereo partly drawn) [Compound 202, 3-ethyl-3-methoxy-1,5-dimethyl-8-[[(1R)-1-[3-(1,1-difluoro-2-hydroxy-2-methyl-propyl)phenyl]ethyl]amino]pyrrolo [2,3-g]phthalazin-2-one] |
| 24.5 nM | CCOC1(C)C(=O)N(C)c2cc3c(C)nnc(N[C@H](C)c4cccc(C(F)(F)C(C)(C)O)c4C)c3cc21 (stereo partly drawn) [Compound 185, 3-ethoxy-1,3,8-trimethyl-5-[[(1R)-1-[3-(1,1-difluoro-2-hydroxy-2-methyl-propyl)-2-methyl-phenyl]ethyl]amino]pyrrolo[3,2-g]phthalazin-2-one] |
| 10.2 nM | COC1(C)C(=O)N(C)c2cc3c(C)nnc(N[C@H](C)c4cccc(C(F)(F)C(C)(C)O)c4F)c3cc21 (stereo partly drawn) [Compound 179, 3-methoxy-1,3,8-trimethyl-5-[[(1R)-1-[3-(1,1-difluoro-2-hydroxy-2-methyl-propyl)-2-fluoro-phenyl]ethyl]amino]pyrrolo[3,2-g]phthalazin-2-one] |
| 8.51 nM | CCC1(OC)C(=O)N(C)c2cc3c(N[C@H](C)c4cccc(C(F)(F)CO)c4F)nnc(C)c3cc21 (stereo partly drawn) [Compound 207, 3-ethyl-3-methoxy-1,5-dimethyl-8-[[(1R)-1-[3-(1,1-difluoro-2-hydroxy-ethyl)-2-fluoro-phenyl]ethyl]amino]pyrrolo[2,3-g]phthalazin-2-one] |
| 19.5 nM | CCC1(OC)C(=O)N(C)c2cc3c(C)nnc(N[C@H](C)c4cccc(C(F)(F)CO)c4C)c3cc21 (stereo partly drawn) [Compound 198, 5-[[(1R)-1-[3-(1,1-difluoro-2-hydroxy-ethyl)-2-methyl-phenyl]ethyl]amino]-3-ethyl-3-methoxy-1,8-dimethyl-pyrrolo[2,3-g]phthalazin-2-one] |
| 16.6 nM | COC1(C)C(=O)N(C)c2cc3c(C)nnc(N[C@H](C)c4cccc(C(F)(F)CO)c4)c3cc21 (stereo partly drawn) [Compound 178, 3-methoxy-1,3,8-trimethyl-5-[[(1R)-1-[3-(1,1-difluoro-2-hydroxy-ethyl)phenyl]ethyl]amino]pyrrolo [3,2-g]phthalazin-2-one] |
| 6.92 nM | Cc1nnc(N[C@H](C)c2cccc(C(F)(F)C(C)(C)O)c2F)c2cc3c(cc12)C1(CCOCC1)C(=O)N3C [Compound 73, 1,5-dimethyl-8-[[(1R)-1-[3-(1,1-difluoro-2-hydroxy-2-methyl-propyl)-2-fluoro-phenyl]ethyl]amino]spiro[pyrrolo [2,3-g]phthalazine-3,4′-tetrahydropyran]-2-one] |
| 9.77 nM | COC1(C)C(=O)N(C)c2cc3c(C)nnc(N[C@H](C)c4cccc(C(F)(F)CO)c4C)c3cc21 (stereo partly drawn) [Compound 177, 3-methoxy-1,3,8-trimethyl-5-[[(1R)-1-[3-(1,1-difluoro-2-hydroxy-ethyl)-2-methyl-phenyl]ethyl]amino]pyrrolo[3,2-g]phthalazin-2-one] |
| 5.75 nM | COC1(C)C(=O)N(C2CC2)c2cc3c(N[C@H](C)c4cccc(C(F)(F)CO)c4F)nnc(C)c3cc21 (stereo partly drawn) [Compound 122, 1-cyclopropyl-3-methoxy-3,5-dimethyl-8-[[(1R)-1-[3-(1,1-difluoro-2-hydroxy-ethyl)-2-fluoro-phenyl]ethyl]amino]pyrrolo[2,3-g]phthalazin-2-one] |
| 10.2 nM | COCC1(C)C(=O)N(C)c2cc3c(N[C@H](C)c4cccc(C(F)(F)C(C)(C)O)c4F)nnc(C)c3cc21 (stereo partly drawn) [Compound 86, D8-[[(1R)-1-[3-(1,1-difluoro-2-hydroxy-2-methyl-propyl)-2-fluoro-phenyl]ethyl]amino]-3-(methoxymethyl)-1,3,5-trimethyl-pyrrolo[3,2-g]phthalazin-2-one] |
| 9.12 nM | Cc1nnc(N[C@H](C)c2cccc(C(F)(F)CO)c2F)c2cc3c(cc12)C1(CCOCC1)C(=O)N3C1CC1 [Compound 114, 1-cyclopropyl-5-methyl-8-[[(1R)-1-[3-(1,1-difluoro-2-hydroxy-ethyl)-2-fluoro-phenyl]ethyl]amino]spiro[pyrrolo [2,3-g]phthalazine-3,4′-tetrahydropyran]-2-one] |
| 11.5 nM | CCOC1(C)C(=O)N(C2CC2)c2cc3c(N[C@H](C)c4cccc(C(F)(F)CO)c4F)nnc(C)c3cc21 (stereo partly drawn) [Compound 164, 1-cyclopropyl-3-ethoxy-3,5-dimethyl-8-[[(1R)-1-[3-(1,1-difluoro-2-hydroxy-ethyl)-2-fluoro-phenyl]ethyl]amino]pyrrolo[2,3-g]phthalazin-2-one] |

Second part, the compound before the results:

| SMILES | IC50 |
| --- | --- |
| Cc1c(C(F)F)cccc1[C@@H](C)Nc1nnc(C)c2cc3c(cc12)n(C)c(=O)n3C [Compound 211, 5-[[(1R)-1-[3-(difluoromethyl)-2-methyl-phenyl]ethyl]amino]-1,3,8-trimethyl-imidazo[4,5-g]phthalazin-2-one] | 9.77 nM |
| CNCC(F)(F)c1cccc([C@@H](C)Nc2nnc(C)c3cc4c(cc23)n(C)c(=O)n4C)c1F [Compound 63, 1,3,8-trimethyl-5-[[(1R)-1-[3-[1,1-difluoro-2-(methylamino)ethyl]-2-fluoro-phenyl]ethyl]amino]imidazo[4,5-g]phthalazin-2-one] | 15.8 nM |
| Cc1cc(-c2cccc([C@@H](C)Nc3nnc(C)c4cc5c(cc34)n(C)c(=O)n5C)c2C)n(C)n1 [Compound 156, 1,3,8-trimethyl-5-[[(1R)-1-[3-(2,5-dimethylpyrazol-3-yl)-2-methyl-phenyl]ethyl]amino]imidazo[4,5-g]phthalazin-2-one] | 89.1 nM |
| Cc1c(C2CCOCC2)cccc1[C@@H](C)Nc1nnc(C)c2cc3c(cc12)n(C)c(=O)n3C [Compound 160, 1,3,8-trimethyl-5-[[(1R)-1-(2-methyl-3-tetrahydropyran-4-yl-phenyl)ethyl]amino]imidazo[4,5-g]phthalazin-2-one] | 269 nM |
| Cc1c(C(F)F)cccc1[C@@H](C)Nc1nnc(C)c2cc3c(cc12)n(C1CC1)c(=O)n3C [Compound 213, 3-cyclopropyl-5-[[(1R)-1-[3-(difluoromethyl)-2-methyl-phenyl]ethyl]amino]-1,8-dimethyl-imidazo[4,5-g]phthalazin-2-one] | 11 nM |
| Cc1nnc(N[C@H](C)c2cc(F)cc(C(F)(F)CO)c2)c2cc3c(cc12)C1(CCCC1)C(=O)N3C [Compound 187, 1′,5′-dimethyl-8′-[[(1R)-1-[3-(1,1-difluoro-2-hydroxy-ethyl)-5-fluoro-phenyl]ethyl]amino]spiro [cyclopentane-1,3′-pyrrolo[2,3-g]phthalazine]-2′-one] | 21.9 nM |
| Cc1nnc(N[C@H](C)c2cccc(C(F)(F)F)c2)c2cc3c(cc12)n(C)c(=O)n3C(C)C [Compound 12, 3-isopropyl-1,8-dimethyl-5-[[(1R)-1-[3-(trifluoromethyl)phenyl]ethyl]amino]imidazo[4,5-g]phthalazin-2-one] | 8.13 nM |
| Cc1c(-c2cncs2)cccc1[C@@H](C)Nc1nnc(C)c2cc3c(cc12)n(C)c(=O)n3C [Compound 159, 1,3,8-trimethyl-5-[[(1R)-1-(2-methyl-3-thiazol-5-yl-phenyl)ethyl]amino]imidazo[4,5-g]phthalazin-2-one] | 17.8 nM |
| Cc1c([C@@H](C)Nc2nnc(C)c3cc4c(cc23)N(C)C(=O)C4(C)C)cccc1C(F)(F)C(C)(C)O [Compound 108, 1,3,3,5-tetramethyl-8-[[(1R)-1-[3-(1,1-difluoro-2-hydroxy-2-methyl-propyl)-2-methyl-phenyl]ethyl]amino]pyrrolo[2,3-g]phthalazin-2-one] | 10.5 nM |
